From ChEMBL document CHEMBL1649573, “Protein kinase G is required for intrinsic antibiotic resistance in mycobacteria” (2009)
Converted amounts (≈) assume the structure as drawn.

What follows are molecules tested on Mycolicibacterium smegmatis (assay: Antimycobacterial activity against PknGMsm-deficient Mycobacterium smegmatis harboring PknG Mtb gene by Etest method).
Type: functional

**Q.** How did the MIC turn out when C[C@@H](O)[C@H]1C(=O)N2C(C(=O)O)=C(SCCNC=N)C[C@H]12 [IMIPENEM ANHYDROUS] was run?
**A.** 6 µg/mL (≈ 20 µM)

**Q.** How did the MIC turn out when CN[C@H](CC(C)C)C(=O)N[C@H]1C(=O)N[C@@H](CC(N)=O)C(=O)N[C@H]2C(=O)N[C@H]3C(=O)N[C@H](C(=O)N[C@H](C(=O)O)c4cc(O)cc(O)c4-c4cc3ccc4O)[C@H](O)c3ccc(c(Cl)c3)Oc3cc2cc(c3O[C@@H]2O[C@H](CO)[C@@H](O)[C@H](O)[C@H]2O[C@H]2C[C@](C)(N)[C@H](O)[C@H](C)O2)Oc2ccc(cc2Cl)[C@H]1O [VANCOMYCIN] was run?
**A.** 48 µg/mL (≈ 33.1 µM)

**Q.** CC[C@@H](CO)NCCN[C@@H](CC)CO [ETHAMBUTOL] was tested. Which MIC did it give?
**A.** 0.25 µg/mL (≈ 1.22 µM)

**Q.** With CC[C@H]1OC(=O)[C@H](C)[C@@H](O[C@H]2C[C@@](C)(OC)[C@@H](O)[C@H](C)O2)[C@H](C)[C@@H](O[C@@H]2O[C@H](C)C[C@H](N(C)C)[C@H]2O)[C@](C)(O)C[C@@H](C)C(=O)[C@H](C)[C@@H](O)[C@]1(C)O [ERYTHROMYCIN] as the molecule, how does the MIC read?
**A.** 32 µg/mL (≈ 43.6 µM)

**Q.** Which MIC does the source give for CO[C@H]1/C=C/O[C@@]2(C)Oc3c(C)c(O)c4c(O)c(c(/C=N/N5CCN(C)CC5)c(O)c4c3C2=O)NC(=O)/C(C)=C\C=C\[C@H](C)[C@H](O)[C@@H](C)[C@@H](O)[C@@H](C)[C@H](OC(C)=O)[C@@H]1C [RIFAMPIN] here?
**A.** > 32 µg/mL
